Test results taken from patent US20230296616A1, “ARGININE FLUORESCENT PROBE, PREPARATION METHOD THEREFOR AND APPLICATION THEREOF” (East China University of Science and Technology, priority 2020, published 2023).

Tests used:
[1] = specific detection of 20 amino acids by arginine fluorescent sensors; type: biochemical; settings: FIG. 8
[2] = target: T1, STM4351-199/200-cpYFP, SEQ ID NO: 22, expressed in the cytosol of HeLa cells (arginine-binding protein STM4351 derived from Salmonella Typhimurium, SEQ ID NO: 1 (Salmonella enterica, UniProt Q8ZKA9, INS199[…]); assay: dynamic monitoring of arginine transmembrane transport in HeLa cells; type: cell-based; settings: after 2 hours of starvation, 10 mM arginine, 20 minutes
T1 construct: expressed in cytosol of HeLa cells from pAAV plasmid
Protocol: • 1. PAAV-based arginine optical sensor plasmids were transfected into HeLa by using the transfection reagent Lipofectamine2000 (Invitrogen) and incubated in a cell incubator at 37° C. with 5% CO2. After the exogenous gene was fully expressed for 24˜36 hours, the fluorescence detection was performed. • 2. After induction of expression, adherent HeLa cells were washed three times with PBS and placed in HMS solution for fluorescence microscopy and microplate reader assays, respectively.
36 hours after transfection of HeLa cells with plasmids encoding cytosolically expressed optical sensor STM4351-199/200-cpYFP, cells were rinsed using PBS, placed in HMS solution, and then changes in the ratio of the fluorescence intensity at 528 nm emission excited at 420 nm to that at 528 nm emission excited at 485 nm were detected over 40 min. After 2 hours of starvation, the ratio 485/420 increased gradually after adding 10 mM arginine for 20 minutes, and the highest ratio was 2.2 times. Same as STM4351-105/110-cpYFP sensor and STM4351-200/203-cpYFP sensor.

[3] = target: T2, STM4351-cpYFP fusion protein, insertion site 200/205, SEQ ID NO: 29 (arginine-binding protein STM4351 derived from Salmonella Typhimurium, SEQ ID NO: 1) (Salmonella enterica, UniProt Q8ZKA9, DELINS201-204[…]); assay: concentration gradient arginine detection (fluorescence ratio titration)
T2 construct: His-tag, pET28a, E. coli JM109(DE3), purified
Protocol: (§1) • 1. The pET28a based arginine sensor plasmid was transformed into JM109 (DE3), incubated inverted overnight, and the clones were picked from the plates into 250 ml Erlenmeyer flasks, placed in a shaker at 37° C. and incubated at 220 rpm to OD=0.4-0.8, then 1/1000 (V/V) of IPTG (1 M) was added to induce expression at 18° C. for 24-36 h. • 2. Upon completion of inducible expression, cells were harvested by centrifugation at 4000 rpm for 30 min, resuspended in 50 mM phosphate buffer and disrupted ultrasonically until the broth were clear, centrifuged at 9600 rpm at 4° C. for 20 min. • 3. The centrifuged supernatant was used to obtain protein by purification through a self packed nickel column affinity chromatography column, and the protein obtained after nickel column affinity chromatography was further used to obtain protein dissolved in 20 mM MOPS buffer (pH 7.4) or phosphate buffer PBS. • 4. After purified arginine-binding protein muteins were subjected to SDS-PAGE, sensors were diluted to a protein solution having a final concentration of 5-10 μM using assay buffer (100 mm HEPES, 100 mM NaCl, pH 7.3) or phosphate buffer PBS. Arginine was formulated as a stock solution at a final concentration of 1 M with assay buffer (20 mM MOPS, pH 7.4) or phosphate buffer PBS. • 5. 100 μl 5 μM of protein solution was taken, incubated at 37° C. for 5 min, arginine was added to mix to a final concentration of 100 mM, respectively, the optical absorption of the protein at 340 nm was determined using a multifunctional fluorescence microplate reader. • 6. 100 μl 1 μM of fluorescent sensor solution was taken, incubated at 37° C. for 5 min, arginine was added for titration, and the fluorescence intensity of 528 nm emission after 485 nm fluorescence excitation of the protein was measured. The fluorescence excitation and emission determination of the samples were done using a multifunctional fluorescence microplate reader. • 7. 100 μl 1 μM of fluorescent sensor solution was taken, incubated at 37° C. for 5 min, and arginine was added to determine the absorption and fluorescence spectra of the sensor proteins. Determination of the absorption and fluorescence spectra of the samples was done by spectrophotometer and spectrofluorometer.

[4] = target: T3, STM4351-cpYFP fusion protein, insertion site 105/110, SEQ ID NO: 11 (arginine-binding protein STM4351 derived from Salmonella Typhimurium, SEQ ID NO: 1) (Salmonella enterica, UniProt Q8ZKA9, DELINS107-109[…]); assay: as above
T3 construct: His-tag, pET28a, E. coli JM109(DE3), purified
Protocol: as §1

[5] = target: T4, STM4351-cpYFP fusion protein, insertion site 199/200, SEQ ID NO: 22 (arginine-binding protein STM4351 derived from Salmonella Typhimurium, SEQ ID NO: 1) (Salmonella enterica, UniProt Q8ZKA9, INS199[…]); assay: as above
T4 construct: His-tag, pET28a, E. coli JM109(DE3), purified
Protocol: as §1

[6] = target: T5, STM4351-cpYFP fusion protein, insertion site 200/203, SEQ ID NO: 27 (arginine-binding protein STM4351 derived from Salmonella Typhimurium, SEQ ID NO: 1) (Salmonella enterica, UniProt Q8ZKA9, DELINS201-202[…]); assay: as above
T5 construct: His-tag, pET28a, E. coli JM109(DE3), purified
Protocol: as §1

[7] = target: T6, STM4351-104/110-cpYFP, SEQ ID NO: 7 (arginine-binding protein STM4351 derived from Salmonella Typhimurium, SEQ ID NO: 1) (Salmonella enterica, UniProt Q8ZKA9, DELINS105-109[…]); assay: fluorescence spectra of sensor with and without arginine; type: biochemical; settings: 500 mM vs 0 mM arginine
T6 construct: His-tag, pET28a, E. coli JM109(DE3), purified
Protocol: (§2) • 1. The pET28a based arginine sensor plasmid was transformed into JM109 (DE3), incubated inverted overnight, and the clones were picked from the plates into 250 ml Erlenmeyer flasks, placed in a shaker at 37° C. and incubated at 220 rpm to OD=0.4-0.8, then 1/1000 (V/V) of IPTG (1 M) was added to induce expression at 18° C. for 24-36 h. • 2. Upon completion of inducible expression, cells were harvested by centrifugation at 4000 rpm for 30 min, resuspended in 50 mM phosphate buffer and disrupted ultrasonically until the broth were clear, centrifuged at 9600 rpm at 4° C. for 20 min. • 3. […] 100 μl 5 μM of protein solution was taken, incubated at 37° C. for 5 min, arginine was added to mix to a final concentration of 100 mM, respectively, the optical absorption of the protein at 340 nm was determined using a multifunctional fluorescence microplate reader. • 6. 100 μl 1 μM of fluorescent sensor solution was taken, incubated at 37° C. for 5 min, arginine was added for titration, and the fluorescence intensity of 528 nm emission after 485 nm fluorescence excitation of the protein was measured. The fluorescence excitation and emission determination of the samples were done using a multifunctional fluorescence microplate reader. • 7. […] Determination of the absorption and fluorescence spectra of the samples was done by spectrophotometer and spectrofluorometer. […]

[8] = target: T7, STM4351-cpYFP fusion protein, insertion site 104/110, SEQ ID NO: 7 (arginine-binding protein STM4351 derived from Salmonella Typhimurium, SEQ ID NO: 1) (Salmonella enterica, UniProt Q8ZKA9, DELINS105-109[…]); assay: screening of purified fusion protein for arginine response; type: biochemical; settings: cpYFP at 104/110; 100 mM arginine vs without arginine
T7 construct: His-tag, pET28a, E. coli JM109(DE3), purified
Protocol: as §1

[9] = target: T2, STM4351-cpYFP fusion protein, insertion site 200/205, SEQ ID NO: 29 (arginine-binding protein STM4351 derived from Salmonella Typhimurium, SEQ ID NO: 1); assay: as above; type: biochemical; settings: cpYFP at 200/205; 100 mM arginine vs without arginine
Protocol: as §1

[10] = target: T3, STM4351-cpYFP fusion protein, insertion site 105/110, SEQ ID NO: 11 (arginine-binding protein STM4351 derived from Salmonella Typhimurium, SEQ ID NO: 1); assay: as above; type: biochemical; settings: cpYFP at 105/110; 100 mM arginine vs without arginine
Protocol: as §1

[11] = target: T4, STM4351-cpYFP fusion protein, insertion site 199/200, SEQ ID NO: 22 (arginine-binding protein STM4351 derived from Salmonella Typhimurium, SEQ ID NO: 1); assay: as above; type: biochemical; settings: cpYFP at 199/200; 100 mM arginine vs without arginine
Protocol: as §1

[12] = target: T5, STM4351-cpYFP fusion protein, insertion site 200/203, SEQ ID NO: 27 (arginine-binding protein STM4351 derived from Salmonella Typhimurium, SEQ ID NO: 1); assay: as above; type: biochemical; settings: cpYFP at 200/203; 100 mM arginine vs without arginine
Protocol: as §1

[13] = target: T8, STM4351-cpYFP fusion protein, insertion site 107/111, SEQ ID NO: 15 (arginine-binding protein STM4351 derived from Salmonella Typhimurium, SEQ ID NO: 1) (Salmonella enterica, UniProt Q8ZKA9, DELINS108-110[…]); assay: as above; type: biochemical; settings: cpYFP at 107/111; 100 mM arginine vs without arginine
T8 construct: His-tag, pET28a, E. coli JM109(DE3), purified
Protocol: as §1

[14] = target: T9, STM4351-107/111-cpYFP variant D177N, SEQ ID NO: 41 (arginine-binding protein STM4351 derived from Salmonella Typhimurium) (Salmonella enterica, UniProt Q8ZKA9, D177N/DELINS108-110[…]); assay: fluorescence detection of mutated cpYFP optical sensor; type: biochemical; settings: D177N-107/111; detected according to Example 2
T9 construct: His-tag, pET28a, E. coli JM109(DE3), purified
Protocol: as §2

[15] = target: T10, STM4351-107/111-cpYFP variant S30N, SEQ ID NO: 40 (arginine-binding protein STM4351 derived from Salmonella Typhimurium) (Salmonella enterica, UniProt Q8ZKA9, DELINS108-110[…]/S30N); assay: as above; type: biochemical; settings: S30N-107/111; detected according to Example 2
T10 construct: His-tag, pET28a, E. coli JM109(DE3), purified
Protocol: as §2

| Molecule | specificity for arginine [1] | highest ratio 485/420 [2] [times] | change amplitude [3] [times] | change amplitude [4] [times] | change amplitude [5] [times] | change amplitude [6] [times] | decrease of fluorescence intensity excited at 420 nm ([7]; excited at 420 nm) [times] | increase in fluorescence intensity under excitation at 485 nm ([7]; excited at 485 nm) [fold] | response to arginine relative to control [8] | response to arginine relative to control [9] | response to arginine relative to control [10] | response to arginine relative to control [11] | response to arginine relative to control [12] | response to arginine relative to control [13] | response to arginine relative to control [14] | response to arginine relative to control [15] |
| --- | --- | --- | --- | --- | --- | --- | --- | --- | --- | --- | --- | --- | --- | --- | --- | --- |
| 199/201: arginine sensor: cpYFP inserted at site 199/201 of STM4351 | good specificity for arginine |  |  |  |  |  |  |  |  |  |  |  |  |  |  |  |
| N=C(N)NCCC[C@H](N)C(=O)O [arginine] |  | 2.2 | 3.0 | 4.3 | 11.0 | 8.6 | 1.4 | 2.0 | more than 2 fold | more than 2 fold | more than 2 fold | more than 2 fold | more than 2 fold | more than 2 fold | more than 3 times | more than 3 times |
